Measurements reported in US20090170812A1, “Transcription factor modulating compounds and methods of use thereof” (priority 2006, published 2009).

Assays:
ExsA = target: T1, ExsA (Pseudomonas aeruginosa, UniProt P26993); assay: In vitro activity of Mar inhibitors against ExsA: cell-free DNA binding assay; settings: purified ExsA from P. aeruginosa, inhibition of DNA binding in vitro
T1 construct: made in house
T1 sequence (P26993 1-278): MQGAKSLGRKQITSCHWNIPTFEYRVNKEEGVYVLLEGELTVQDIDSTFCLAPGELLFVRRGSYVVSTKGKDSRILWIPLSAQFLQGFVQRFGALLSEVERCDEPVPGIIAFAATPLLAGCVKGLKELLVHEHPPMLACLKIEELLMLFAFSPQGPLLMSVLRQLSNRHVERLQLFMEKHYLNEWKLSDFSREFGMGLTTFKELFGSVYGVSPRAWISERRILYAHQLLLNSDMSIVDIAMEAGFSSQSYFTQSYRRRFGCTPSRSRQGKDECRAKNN

LcrF (VirF) = LcrF (VirF) (Yersinia pestis, UniProt P28808); assay: biochemical; type: binding, Y. pseudotuberculosis
Sequence of LcrF (VirF) (P28808 whole entry, looked up): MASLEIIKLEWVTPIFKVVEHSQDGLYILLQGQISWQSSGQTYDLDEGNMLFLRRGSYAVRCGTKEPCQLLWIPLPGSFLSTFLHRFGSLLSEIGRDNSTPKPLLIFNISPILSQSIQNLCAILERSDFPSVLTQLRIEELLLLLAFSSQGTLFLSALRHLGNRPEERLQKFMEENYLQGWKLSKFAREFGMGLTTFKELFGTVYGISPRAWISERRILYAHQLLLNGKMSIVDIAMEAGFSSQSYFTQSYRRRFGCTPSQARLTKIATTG

[1] = tested on: Yersinia pseudotuberculosis
P. aeruginosa = assay: Whole cell assay: cytotoxicity of P. aeruginosa toward J774 cells (CytoTox 96, LDH release); settings: percent cytotoxicity of treated P. aeruginosa toward J774 cells

SMILES	EC50 (ExsA) [µM]	EC50 (LcrF (VirF)) [µM]	Cytotoxicity at 50 μg/mL Yersinia [1]	Cytotoxicity at 50 μg/mL Pseudomonas (P. aeruginosa)
O=C(/C=C/c1ccc(F)cc1F)Nc1ccc(-c2nc3ccc([N+](=O)[O-])cc3n2O)nc1 [AP]	< 10	< 10	* (key: *: percent cytotoxicity above 75% at 50 μg/mL; **: cytotoxicities below 75% at 50 μg/mL)	* (percent cytotoxicities above 75% at 50 mg/mL)
O=C(Nc1ccc(-c2nc3ccc([N+](=O)[O-])cc3n2O)nc1)c1ccc(F)cc1 [AF]	> 25.1	> 25.1	* (key: *: percent cytotoxicity above 75% at 50 μg/mL; **: cytotoxicities below 75% at 50 μg/mL)	–
Cc1cc(-c2nc3ccc([N+](=O)[O-])cc3n2O)ccc1NC(=O)/C=C/c1ccc(F)cc1 [BB]	> 25.1	10.1 to 25	* (key: *: percent cytotoxicity above 75% at 50 μg/mL; **: cytotoxicities below 75% at 50 μg/mL)	–
CN(C)C(=O)c1ccc(C(=O)Nc2ccc(-c3nc4ccc([N+](=O)[O-])cc4n3O)cc2)cc1 [BP]	–	–	* (key: *: percent cytotoxicity above 75% at 50 μg/mL; **: cytotoxicities below 75% at 50 μg/mL)	* (percent cytotoxicities above 75% at 50 mg/mL)
O=C(Nc1ccc(-c2nc3ccc([N+](=O)[O-])cc3n2OCP(=O)(O)O)cc1)c1ccc(F)cc1 [AK]	–	–	* (key: *: percent cytotoxicity above 75% at 50 μg/mL; **: cytotoxicities below 75% at 50 μg/mL)	–
O=C(O)COn1c(-c2ccc(NC(=O)c3ccc(F)cc3)cc2)nc2ccc([N+](=O)[O-])cc21 [Compound V, {2-[4-(4-Fluoro-benzoylamino)-phenyl]-6-nitro-benzoimidazol-1-yloxy}-acetic Acid]	–	> 25.1	* (key: *: percent cytotoxicity above 75% at 50 μg/mL; **: cytotoxicities below 75% at 50 μg/mL)	–
O=C(Nc1ccc(-c2nc3ccncc3n2O)cc1)c1ccc(F)cc1 [AX]	–	–	* (key: *: percent cytotoxicity above 75% at 50 μg/mL; **: cytotoxicities below 75% at 50 μg/mL)	–
O=C(/C=C/c1ccc(F)cc1)Nc1ccc(-c2nc3ccc(-n4cccn4)cc3n2O)cc1 [Compound CL, (E)-3-(4-Fluoro-phenyl)-N-[4-(1-hydroxy-6-pyrazol-1-yl-1H-benzoimidazol-2-yl)-phenyl]-acrylamide]	> 25.1	> 25.1	–	* (percent cytotoxicities above 75% at 50 mg/mL)
CN(C)CCN(C)c1cc2nc(-c3ccc(NC(=O)/C=C/c4ccc(F)cc4)cc3)n(O)c2cc1[N+](=O)[O-] [CE]	< 10	< 10	–	** (cytotoxicities below 75% at 50 mg/mL)
CC(=O)c1ccc(/C=C/C(=O)Nc2ccc(-c3nc4cc(OCCN5CCN(C)CC5)c([N+](=O)[O-])cc4n3O)cc2)cc1 [CI]	< 10	< 10	–	** (cytotoxicities below 75% at 50 mg/mL)
O=C(Nc1ccc(-c2nc3ccc([N+](=O)[O-])cc3n2O)c(OCP(=O)(O)O)c1)c1ccc(F)cc1 [Compound AR, [5-(4-Fluoro-benzoylamino)-2-(1-hydroxy-6-nitro-1H-benzoimidazol-2-yl)-phenoxymethyl]-phosphonic Acid]	–	–	* (key: *: percent cytotoxicity above 75% at 50 μg/mL; **: cytotoxicities below 75% at 50 μg/mL)	–
CC(=O)c1ccc(C(=O)Nc2ccc(-c3nc4ccc(-n5cccn5)cc4n3O)cc2)cc1 [Compound CM, 4-Acetyl-N-[4-(1-hydroxy-6-pyrazol-1-yl-1H-benzoimidazol-2-yl)-phenyl]-benzamide]	–	–	–	* (percent cytotoxicities above 75% at 50 mg/mL)
CN(C)CCOc1cc2nc(-c3ccc(NC(=O)/C=C/c4ccc(F)cc4)cc3)n(O)c2cc1[N+](=O)[O-] [CG]	> 25.1	–	–	* (percent cytotoxicities above 75% at 50 mg/mL)
NC(=O)c1ccc2nc(-c3ccc(NC(=O)c4ccc(F)cc4)cc3)n(O)c2c1 [Compound AD, 2-[4-(4-Fluoro-benzoylamino)-phenyl]-3-hydroxy-3H-benzoimidazole-5-carboxylic Acid Amide]	–	–	* (key: *: percent cytotoxicity above 75% at 50 μg/mL; **: cytotoxicities below 75% at 50 μg/mL)	–
CC(=NO)c1ccc2nc(-c3ccc(NC(=O)c4ccc(N(C)C)cc4)cc3)n(O)c2c1 [U]	> 25.1	> 25.1	* (key: *: percent cytotoxicity above 75% at 50 μg/mL; **: cytotoxicities below 75% at 50 μg/mL)	–
CN1CCN(CCOc2cc3nc(-c4ccc(NC(=O)/C=C/c5ccc(F)cc5)cc4)n(O)c3cc2[N+](=O)[O-])CC1 [CF]	< 10	< 10	–	* (percent cytotoxicities above 75% at 50 mg/mL)
CC(=O)c1ccc(C(=O)Nc2ccc(-c3nc4ccc([N+](=O)[O-])cc4n3O)cc2C)cc1 [BF]	< 10	–	* (key: *: percent cytotoxicity above 75% at 50 μg/mL; **: cytotoxicities below 75% at 50 μg/mL)	–

SMILES	EC50 (ExsA) [µM]	EC50 (LcrF (VirF)) [µM]	Cytotoxicity at 50 μg/mL Yersinia [1]	Cytotoxicity at 50 μg/mL Pseudomonas (P. aeruginosa)
O=C(/C=C/c1ccc(F)cc1)Nc1ccc(-c2nc3ccc(-n4ccnc4)cc3n2O)cc1 [CH]	10.1 to 25	> 25.1	–	* (percent cytotoxicities above 75% at 50 mg/mL)
N#Cc1ccc2nc(-c3ccc(NC(=O)c4ccc(-n5ccnc5)cc4)cc3)n(O)c2c1 [CO]	> 25.1	10.1 to 25	–	** (cytotoxicities below 75% at 50 mg/mL)
O=C(C/C=C/c1ccccc1)Nc1ccc(-c2nc3ccc([N+](=O)[O-])cc3n2O)cc1 [N]	–	> 25.1	* (key: *: percent cytotoxicity above 75% at 50 μg/mL; **: cytotoxicities below 75% at 50 μg/mL)	* (percent cytotoxicities above 75% at 50 mg/mL)
CC(=O)c1ccc(/C=C/C(=O)Nc2ccc(-c3nc4ccc([N+](=O)[O-])cc4n3O)cc2)cc1 [Compound BQ, (E)-3-(4-Acetyl-phenyl)-N-[4-(1-hydroxy-6-nitro-1H-benzoimidazol-2-yl)-phenyl]-acrylamide]	< 10	10.1 to 25	–	** (cytotoxicities below 75% at 50 mg/mL)
CCOP(=O)(COn1c(-c2ccc(NC(=O)c3ccc(F)cc3)cc2)nc2ccc([N+](=O)[O-])cc21)OCC [AU]	–	–	* (key: *: percent cytotoxicity above 75% at 50 μg/mL; **: cytotoxicities below 75% at 50 μg/mL)	–
CC(=O)c1ccc(C(=O)Nc2ccc(-c3nc4ccc(-n5ccnc5)cc4n3O)cc2)cc1 [Compound CN, 4-Acetyl-N-[4-(1-hydroxy-6-imidazol-1-yl-1H-benzoimidazol-2-yl)-phenyl]-benzamide]	–	–	–	* (percent cytotoxicities above 75% at 50 mg/mL)
NC(=NO)c1ccc2nc(-c3ccc(NC(=O)c4ccc(F)cc4)cc3)n(O)c2c1 [M]	> 25.1	> 25.1	* (key: *: percent cytotoxicity above 75% at 50 μg/mL; **: cytotoxicities below 75% at 50 μg/mL)	–
O=C(/C=C/c1ccc(F)cc1)Nc1ccc(-c2nc3cc(F)c([N+](=O)[O-])cc3n2O)cc1 [Compound BO, N-[4-(5-Fluoro-1-hydroxy-6-nitro-1H-benzoimidazol-2-yl)-phenyl]-3-(4-fluoro-cinnamyl)-amide]	> 25.1	> 25.1	–	** (cytotoxicities below 75% at 50 mg/mL)
C/C(=C\c1ccccc1)C(=O)Nc1ccc(-c2nc3ccc([N+](=O)[O-])cc3n2O)cc1 [I]	–	> 25.1	* (key: *: percent cytotoxicity above 75% at 50 μg/mL; **: cytotoxicities below 75% at 50 μg/mL)	–
O=C(/C=C/c1ccc(-n2ccnc2)cc1)Nc1ccc(-c2nc3ccc([N+](=O)[O-])cc3n2O)cc1 [Compound BK, (E)-N-[4-(1-Hydroxy-6-nitro-1H-benzoimidazol-2-yl)-phenyl]-3-(4-imidazol-1-yl-phenyl)-acrylamide]	< 10	–	** (key: *: percent cytotoxicity above 75% at 50 μg/mL; **: cytotoxicities below 75% at 50 μg/mL)	** (cytotoxicities below 75% at 50 mg/mL)
CC(=O)c1ccc(/C=C/C(=O)Nc2ccc(-c3nc4cc(OCCN5CCOCC5)c([N+](=O)[O-])cc4n3O)cc2)cc1 [CJ]	–	–	–	** (cytotoxicities below 75% at 50 mg/mL)
CC(=O)c1ccc(/C=C/C(=O)Nc2ccc(-c3nc4ccc(C#N)cc4n3O)cc2)cc1 [CK]	10.1 to 25	10.1 to 25	–	** (cytotoxicities below 75% at 50 mg/mL)
CC(C)c1ccc(/C=C/C(=O)Nc2ccc(-c3nc4ccc([N+](=O)[O-])cc4n3O)cc2)cc1 [H]	> 25.1	> 25.1	* (key: *: percent cytotoxicity above 75% at 50 μg/mL; **: cytotoxicities below 75% at 50 μg/mL)	–
CCc1cc(-c2nc3ccc([N+](=O)[O-])cc3n2O)ccc1NC(=O)c1ccc(F)cc1 [Z]	> 25.1	10.1 to 25	* (key: *: percent cytotoxicity above 75% at 50 μg/mL; **: cytotoxicities below 75% at 50 μg/mL)	–
O=C(Nc1ccc2nc(-c3ccc([N+](=O)[O-])cc3)n(O)c2c1)c1ccc(F)cc1 [L]	–	–	* (key: *: percent cytotoxicity above 75% at 50 μg/mL; **: cytotoxicities below 75% at 50 μg/mL)	–
O=C(/C=C/c1ccc(F)cc1)Nc1ccc(-c2nc3ccncc3n2O)cc1 [AY]	–	–	* (key: *: percent cytotoxicity above 75% at 50 μg/mL; **: cytotoxicities below 75% at 50 μg/mL)	–
O=C(Nc1ccc(-c2nc3ccc([N+](=O)[O-])cc3n2O)cc1)c1ccc2c(c1)CCCC2=O [BD]	> 25.1	> 25.1	* (key: *: percent cytotoxicity above 75% at 50 μg/mL; **: cytotoxicities below 75% at 50 μg/mL)	–
